# Like-named read-outs stand apart in the source and are kept apart here.
# Assays:
# Format in all cases: biochemical
# PDE9A2 = target: T1, PDE9A2 (Homo sapiens, UniProt O76083); assay: Phosphodiesterase enzyme screening assay, PDE9A2
# T1 construct: purchased Reaction Biology Corporation, Malvern, Pa
# In short: (§1)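 Read-out was electrophoretic mobility-shift separation on chip of fluorescent cyclic nucleotide from 5′-AMP/5′-GMP, with inhibition or enhancement judged against control wells (quadruplicate means). Reactions lasted 1 h at RT in HEPES pH 7.5 buffer with MgCl2, DTT and Brij plus 4.0 μM cGMP substrate, then were halted with EDTA stop buffer.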
# PDE1A = target: T2, PDE1A (Homo sapiens, UniProt P54750); assay: Phosphodiesterase enzyme screening assay, PDE1A
# T2 construct: purchased Reaction Biology Corporation, Malvern, Pa
# T2 sequence (P54750 whole entry): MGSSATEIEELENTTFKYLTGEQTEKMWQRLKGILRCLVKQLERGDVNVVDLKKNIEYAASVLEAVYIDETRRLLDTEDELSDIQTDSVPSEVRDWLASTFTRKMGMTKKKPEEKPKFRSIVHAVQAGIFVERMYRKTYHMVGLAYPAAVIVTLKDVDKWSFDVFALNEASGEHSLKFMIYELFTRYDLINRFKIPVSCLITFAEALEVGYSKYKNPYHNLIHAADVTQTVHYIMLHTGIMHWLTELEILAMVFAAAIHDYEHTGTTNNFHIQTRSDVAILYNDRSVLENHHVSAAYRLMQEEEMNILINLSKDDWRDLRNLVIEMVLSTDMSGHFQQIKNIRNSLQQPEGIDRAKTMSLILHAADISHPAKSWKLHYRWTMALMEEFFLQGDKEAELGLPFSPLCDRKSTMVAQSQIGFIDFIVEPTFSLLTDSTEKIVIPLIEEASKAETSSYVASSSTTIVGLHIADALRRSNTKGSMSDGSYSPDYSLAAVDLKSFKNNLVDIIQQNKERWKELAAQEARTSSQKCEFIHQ
# In short: as §1
# PDE1B = target: T3, PDE1B (Homo sapiens, UniProt Q01064); assay: Phosphodiesterase enzyme screening assay, PDE1B
# T3 construct: purchased Reaction Biology Corporation, Malvern, Pa
# T3 sequence (Q01064 whole entry): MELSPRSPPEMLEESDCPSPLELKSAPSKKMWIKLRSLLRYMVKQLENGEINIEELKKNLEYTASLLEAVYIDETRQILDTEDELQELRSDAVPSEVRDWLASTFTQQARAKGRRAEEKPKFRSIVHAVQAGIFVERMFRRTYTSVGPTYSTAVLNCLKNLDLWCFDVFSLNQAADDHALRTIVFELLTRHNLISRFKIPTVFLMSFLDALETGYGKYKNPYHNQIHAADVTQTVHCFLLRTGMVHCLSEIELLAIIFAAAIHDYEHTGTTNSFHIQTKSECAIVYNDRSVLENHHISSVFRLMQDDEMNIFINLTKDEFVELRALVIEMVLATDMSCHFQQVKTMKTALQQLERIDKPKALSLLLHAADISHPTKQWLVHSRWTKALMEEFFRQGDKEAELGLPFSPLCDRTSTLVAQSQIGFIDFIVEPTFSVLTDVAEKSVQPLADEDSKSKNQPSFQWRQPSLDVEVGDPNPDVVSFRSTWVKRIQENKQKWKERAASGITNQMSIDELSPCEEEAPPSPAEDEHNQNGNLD
# In short: as §1
# [1] = Table 1, 10 concentrations, 4.0 μM cGMP substrate, 1 hour at R.T., read-out: Band (PDE9A2 IC50)
# [2] = Table 1, ratio of IC50 values, value greater than 1 indicates greater selectivity for PDE9A2
# [3] = ratio of IC50 values, PDE1A versus PDE9A2, value greater than 1 indicates greater selectivity for PDE9A2
# [4] = ratio of IC50 values, PDE1B versus PDE9A2, value greater than 1 indicates greater selectivity for PDE9A2
# [5] = 4.0 μM cGMP substrate, 1 hour at R.T., read-out: Band (PDE9A2 IC50)
# [6] = ratio of IC50 values PDE1A / PDE9A2, value greater than 1 = greater selectivity for PDE9A2
# [7] = ratio of IC50 values PDE1B / PDE9A2, value greater than 1 = greater selectivity for PDE9A2
# [8] = ratio of IC50 values, value greater than 1 indicates greater selectivity for PDE9A2
# [9] = IC50 band, 4.0 μM cGMP substrate, 1 hour at R.T.
# [10] = ratio of IC50 values PDE1A vs PDE9A2, value greater than 1 indicates greater selectivity for PDE9A2
# [11] = ratio of IC50 values PDE1B vs PDE9A2, value greater than 1 indicates greater selectivity for PDE9A2
# [12] = Table 2, 10 concentrations, 4.0 μM cGMP substrate, 1 hour at R.T., read-out: Band (PDE9A2 IC50)
# [13] = Table 2, ratio of IC50 values, value greater than 1 indicates greater selectivity for PDE9A2
# T1 sequence (O76083 1-533 isoform O76083-2): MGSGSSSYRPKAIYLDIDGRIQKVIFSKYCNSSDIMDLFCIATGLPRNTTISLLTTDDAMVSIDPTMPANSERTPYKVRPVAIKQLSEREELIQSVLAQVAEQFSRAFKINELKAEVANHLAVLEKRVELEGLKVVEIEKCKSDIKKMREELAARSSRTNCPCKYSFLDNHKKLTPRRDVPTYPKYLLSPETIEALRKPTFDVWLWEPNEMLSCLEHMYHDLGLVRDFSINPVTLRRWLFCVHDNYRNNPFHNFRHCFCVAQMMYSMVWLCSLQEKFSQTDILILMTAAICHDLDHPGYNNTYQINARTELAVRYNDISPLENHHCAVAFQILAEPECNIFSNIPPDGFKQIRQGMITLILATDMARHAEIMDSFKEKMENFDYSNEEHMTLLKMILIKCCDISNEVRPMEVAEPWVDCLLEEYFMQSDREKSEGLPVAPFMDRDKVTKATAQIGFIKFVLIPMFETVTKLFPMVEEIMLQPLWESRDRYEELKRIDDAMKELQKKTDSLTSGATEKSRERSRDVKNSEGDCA
structure (smiles),measurement,setting,value
"CC1CN(Cc2ccc(F)cc2)CC1c1nn2c(C3CCOCC3)ncc2c(=O)[nH]1 (single isomer, unassigned; (+)) [(+)-2-((3,4-trans)-1-(4-fluorobenzyl)-4-methylpyrrolidin-3-yl)-7-(tetrahydro-2H-pyran-4-yl)imidazo[5,1-f][1,2,4]triazin-4(3H)-one]",IC50,PDE9A2; [1],< 1000 nM
same,PDE1A selectivity (versus PDE9A2),PDE1A; [2],664
same,PDE1B selectivity (versus PDE9A2),PDE1B; [2],714
"CC1CN(Cc2ccc(F)cc2)CC1c1nn2c(-c3ccccc3)ncc2c(=O)[nH]1 (single isomer, unassigned; (+)) [(+)-2-((3,4-trans)-1-(4-fluorobenzyl)-4-methylpyrrolidin-3-yl)-7-phenylimidazo[5,1-f][1,2,4]triazin-4(3H)-one]",IC50,PDE9A2; read-out: Band (PDE9A2 IC50),< 1000 nM
same,PDE1A selectivity (versus PDE9A2),PDE1A; [3],3
same,PDE1B selectivity (versus PDE9A2),PDE1B; [4],7
"CC1CN(Cc2cc(Cl)ccc2F)CC1c1nn2c(C3CCOCC3)ncc2c(=O)[nH]1 (single isomer, unassigned; (+)) [(+)-2-((3,4-trans)-1-(5-chloro-2-fluorobenzyl)-4-methylpyrrolidin-3-yl)-7-(tetrahydro-2H-pyran-4-yl)imidazo[5,1-f][1,2,4]triazin-4(3H)-one]",IC50,PDE9A2; [5],< 1000 nM
same,PDE1A selectivity (versus PDE9A2),PDE1A; [6],15
same,PDE1B selectivity (versus PDE9A2),PDE1B; [7],16
"CC1CN(Cc2ncon2)CC1c1nn2c(C3CCOCC3)ncc2c(=O)[nH]1 (single isomer, unassigned; (+)) [(+)-2-((3,4-trans)-1-((1,2,4-oxadiazol-3-yl)methyl)-4-methylpyrrolidin-3-yl)-7-(tetrahydro-2H-pyran-4-yl)imidazo[5,1-f][1,2,4]triazin-4(3H)-one]",IC50,PDE9A2; read-out: Band (PDE9A2 IC50),< 1000 nM
same,PDE1A selectivity (versus PDE9A2),PDE1A; [8],35
same,PDE1B selectivity (versus PDE9A2),PDE1B; [8],63
"CC1CN(Cc2ncno2)CC1c1nn2c(C3CCOCC3)ncc2c(=O)[nH]1 (single isomer, unassigned; (+)) [(+)-2-((3,4-trans)-1-((1,2,4-oxadiazol-5-yl)methyl)-4-methylpyrrolidin-3-yl)-7-(tetrahydro-2H-pyran-4-yl)imidazo[5,1-f][1,2,4]triazin-4(3H)-one]",IC50,PDE9A2; read-out: Band (PDE9A2 IC50),< 1000 nM
same,PDE1A selectivity (versus PDE9A2),PDE1A; [8],650
same,PDE1B selectivity (versus PDE9A2),PDE1B; [8],1528
"Cc1cc(CN2CC(C)C(c3nn4c(C5CCOCC5)ncc4c(=O)[nH]3)C2)n(C)n1 (single isomer, unassigned; (+)) [(+)-2-((3,4-trans)-1-((1,3-dimethyl-1H-pyrazol-5-yl)methyl)-4-methylpyrrolidin-3-yl)-7-(tetrahydro-2H-pyran-4-yl)imidazo[5,1-f][1,2,4]triazin-4(3H)-one]",IC50,PDE9A2; [1],< 1000 nM
same,PDE1A selectivity (versus PDE9A2),PDE1A; [2],487
same,PDE1B selectivity (versus PDE9A2),PDE1B; [2],670
"CC1CN(Cc2nc3ccccc3[nH]2)CC1c1nn2c(C3CCC(F)(F)CC3)ncc2c(=O)[nH]1 (single isomer, unassigned; (+)) [(+)-2-((3,4-trans)-1-((1H-benzo[d]imidazol-2-yl)methyl)-4-methylpyrrolidin-3-yl)-7-(4,4-difluorocyclohexyl)imidazo[5,1-f][1,2,4]triazin-4(3H)-one]",IC50,PDE9A2; [9],< 1000 nM
same,PDE1A selectivity (versus PDE9A2),PDE1A; [10],90
same,PDE1B selectivity (versus PDE9A2),PDE1B; [11],250
"Cc1cc(F)ccc1-c1ncc2c(=O)[nH]c(C3CN(Cc4nc5ccccc5[nH]4)CC3C)nn12 (single isomer, unassigned; (+)) [(+)-2-((3,4-trans)-1-((1H-benzo[d]imidazol-2-yl)methyl)-4-methylpyrrolidin-3-yl)-7-(4-fluoro-2-methylphenyl)imidazo[5,1-f][1,2,4]triazin-4(3H)-one]",IC50,PDE9A2; [9],< 1000 nM
same,PDE1A selectivity (versus PDE9A2),PDE1A; [10],1438
same,PDE1B selectivity (versus PDE9A2),PDE1B; [11],2500
"Cc1ccc(F)cc1-c1ncc2c(=O)[nH]c(C3CN(Cc4nc5ccccc5[nH]4)CC3C)nn12 (single isomer, unassigned; (+)) [(+)-2-((3,4-trans)-1-((1H-benzo[d]imidazol-2-yl)methyl)-4-methylpyrrolidin-3-yl)-7-(5-fluoro-2-methylphenyl)imidazo[5,1-f][1,2,4]triazin-4(3H)-one]",IC50,PDE9A2; [9],< 1000 nM
same,PDE1A selectivity (versus PDE9A2),PDE1A; [10],89
same,PDE1B selectivity (versus PDE9A2),PDE1B; [11],130
"Cc1ccccc1-c1ncc2c(=O)[nH]c(C3CN(Cc4nc5ccccc5[nH]4)CC3C)nn12 (single isomer, unassigned; (+)) [(+)-2-((3,4-trans)-1-((1H-benzo[d]imidazol-2-yl)methyl)-4-methylpyrrolidin-3-yl)-7-(o-tolyl)imidazo[5,1-f][1,2,4]triazin-4(3H)-one]",IC50,PDE9A2; read-out: Band (PDE9A2 IC50),< 1000 nM
same,PDE1A selectivity (versus PDE9A2),PDE1A; [3],1740
same,PDE1B selectivity (versus PDE9A2),PDE1B; [4],2990
"CCc1ncc(CN2CC(C)C(c3nn4c(C5CCOCC5)ncc4c(=O)[nH]3)C2)cn1 (single isomer, unassigned; (+)) [(+)-2-((3,4-trans)-1-((2-ethylpyrimidin-5-yl)methyl)-4-methylpyrrolidin-3-yl)-7-(tetrahydro-2H-pyran-4-yl)imidazo[5,1-f][1,2,4]triazin-4(3H)-one]",IC50,PDE9A2; [1],< 1000 nM
same,PDE1A selectivity (versus PDE9A2),PDE1A; [2],855
same,PDE1B selectivity (versus PDE9A2),PDE1B; [2],1920
"COc1cc(CN2CC(C)C(c3nn4c(C5CCOCC5)ncc4c(=O)[nH]3)C2)ccn1 (single isomer, unassigned; (+)) [(+)-2-((3,4-trans)-1-((2-methoxypyridin-4-yl)methyl)-4-methylpyrrolidin-3-yl)-7-(tetrahydro-2H-pyran-4-yl)imidazo[5,1-f][1,2,4]triazin-4(3H)-one]",IC50,"PDE9A2; Table 3, 4.0 μM cGMP substrate, 1 hour at R.T., read-out: Band (PDE9A2 IC50)",< 1000 nM
same,PDE1A selectivity (versus PDE9A2),"PDE1A; ratio of IC50 values, PDE1A versus PDE9A2, value greater than 1 = greater selectivity for PDE9A2",317
same,PDE1B selectivity (versus PDE9A2),"PDE1B; ratio of IC50 values, PDE1B versus PDE9A2, value greater than 1 = greater selectivity for PDE9A2",607
"COc1ncc(CN2CC(C)C(c3nn4c(C5CCOCC5)ncc4c(=O)[nH]3)C2)cn1 (single isomer, unassigned; (+)) [(+)-2-((3,4-trans)-1-((2-methoxypyrimidin-5-yl)methyl)-4-methylpyrrolidin-3-yl)-7-(tetrahydro-2H-pyran-4-yl)imidazo[5,1-f][1,2,4]triazin-4(3H)-one]",IC50,PDE9A2; [5],< 1000 nM
same,PDE1A selectivity (versus PDE9A2),PDE1A; [6],1210
same,PDE1B selectivity (versus PDE9A2),PDE1B; [7],3650
"CC1CN(CC2CCC(F)(F)CC2)CC1c1nn2c(C3CCOCC3)ncc2c(=O)[nH]1 (single isomer, unassigned; (+)) [(+)-2-((3,4-trans)-1-((4,4-difluorocyclohexyl)methyl)-4-methylpyrrolidin-3-yl)-7-(tetrahydro-2H-pyran-4-yl)imidazo[5,1-f][1,2,4]triazin-4(3H)-one]",IC50,PDE9A2; read-out: Band (PDE9A2 IC50),< 1000 nM
same,PDE1A selectivity (versus PDE9A2),PDE1A; [8],51
same,PDE1B selectivity (versus PDE9A2),PDE1B; [8],68
"Cc1cc(C)nc(CN2CC(C)C(c3nn4c(C5CCOCC5)ncc4c(=O)[nH]3)C2)n1 (single isomer, unassigned; (+)) [(+)-2-((3,4-trans)-1-((4,6-dimethylpyrimidin-2-yl)methyl)-4-methylpyrrolidin-3-yl)-7-(tetrahydro-2H-pyran-4-yl)imidazo[5,1-f][1,2,4]triazin-4(3H)-one]",IC50,PDE9A2; [12],< 1000 nM
same,PDE1A selectivity (versus PDE9A2),PDE1A; [13],947
same,PDE1B selectivity (versus PDE9A2),PDE1B; [13],767
"CC1CN(Cc2nccc(N(C)C)n2)CC1c1nn2c(C3CCOCC3)ncc2c(=O)[nH]1 (single isomer, unassigned; (+)) [(+)-2-((3,4-trans)-1-((4-(dimethylamino)pyrimidin-2-yl)methyl)-4-methylpyrrolidin-3-yl)-7-(tetrahydro-2H-pyran-4-yl)imidazo[5,1-f][1,2,4]triazin-4(3H)-one]",IC50,PDE9A2; [12],< 1000 nM
same,PDE1A selectivity (versus PDE9A2),PDE1A; [13],117
same,PDE1B selectivity (versus PDE9A2),PDE1B; [13],177
"CC1CN(Cc2nccc(C3CC3)n2)CC1c1nn2c(C3CCOCC3)ncc2c(=O)[nH]1 (single isomer, unassigned; (+)) [(+)-2-((3,4-trans)-1-((4-cyclopropylpyrimidin-2-yl)methyl)-4-methylpyrrolidin-3-yl)-7-(tetrahydro-2H-pyran-4-yl)imidazo[5,1-f][1,2,4]triazin-4(3H)-one]",IC50,PDE9A2; [12],< 1000 nM
same,PDE1A selectivity (versus PDE9A2),PDE1A; [13],229
same,PDE1B selectivity (versus PDE9A2),PDE1B; [13],403
